One compound from publication PMC8799717, “Pharmacological targeting PIKfyve and tubulin as an effective treatment strategy for double-hit lymphoma” (Cell Death Discovery, 2022) can be followed below.

SMILES strings stand for the structures.

Among the targets are ERN1 (Homo sapiens, UniProt O75460); NEK6 (Homo sapiens, UniProt Q9HC98); PAK1 (Homo sapiens, UniProt Q13153); GRK2 (Homo sapiens, UniProt P25098); CDK8 (Homo sapiens, UniProt P49336); FLT3(D835H) (Homo sapiens, UniProt P36888, D835H); AURKA (Homo sapiens, UniProt O14965); PDPK1 (Homo sapiens, UniProt O15530); ROCK2 (Homo sapiens, UniProt O75116); ANKK1 (Homo sapiens, UniProt Q8NFD2); LATS2 (Homo sapiens, UniProt Q9NRM7); CSK (Homo sapiens, UniProt P41240); EGFR(S752-I759del) (Homo sapiens, UniProt P00533, DEL752-759); LIMK2 (Homo sapiens, UniProt P53671); SBK1 (Homo sapiens, UniProt Q52WX2); WEE1 (Homo sapiens, UniProt P30291).

Common to all, as to experiment: biochemical
Common to all, as to design: KINOMEscan active-site-directed competition binding panel, 468 kinases, percent of DMSO control at 1 uM
Holding throughout (details): KINOMEscan binding, percent of DMSO control; read-out: Ctrl%

For another test, the target named is T1, MEK4 (Homo sapiens, UniProt P45985).
T1 construct: gene MAP2K4

A further test concerns the target T2, ABL1-phosphorylated (Homo sapiens, UniProt P00519).
T2 construct: phosphorylated

The target of test [1] is T3, ABL1(F317I)-nonphosphorylated (Homo sapiens, UniProt P00519, F317I).
T3 construct: nonphosphorylated

For another test, the target named is T4, YSK4 (Homo sapiens, UniProt Q56UN5).
T4 construct: gene MAP3K19

Test [2] deals with T5, JAK1(JH1domain-catalytic) (Homo sapiens, UniProt P23458).
T5 construct: JH1domain-catalytic
T5 sequence (P23458 whole entry): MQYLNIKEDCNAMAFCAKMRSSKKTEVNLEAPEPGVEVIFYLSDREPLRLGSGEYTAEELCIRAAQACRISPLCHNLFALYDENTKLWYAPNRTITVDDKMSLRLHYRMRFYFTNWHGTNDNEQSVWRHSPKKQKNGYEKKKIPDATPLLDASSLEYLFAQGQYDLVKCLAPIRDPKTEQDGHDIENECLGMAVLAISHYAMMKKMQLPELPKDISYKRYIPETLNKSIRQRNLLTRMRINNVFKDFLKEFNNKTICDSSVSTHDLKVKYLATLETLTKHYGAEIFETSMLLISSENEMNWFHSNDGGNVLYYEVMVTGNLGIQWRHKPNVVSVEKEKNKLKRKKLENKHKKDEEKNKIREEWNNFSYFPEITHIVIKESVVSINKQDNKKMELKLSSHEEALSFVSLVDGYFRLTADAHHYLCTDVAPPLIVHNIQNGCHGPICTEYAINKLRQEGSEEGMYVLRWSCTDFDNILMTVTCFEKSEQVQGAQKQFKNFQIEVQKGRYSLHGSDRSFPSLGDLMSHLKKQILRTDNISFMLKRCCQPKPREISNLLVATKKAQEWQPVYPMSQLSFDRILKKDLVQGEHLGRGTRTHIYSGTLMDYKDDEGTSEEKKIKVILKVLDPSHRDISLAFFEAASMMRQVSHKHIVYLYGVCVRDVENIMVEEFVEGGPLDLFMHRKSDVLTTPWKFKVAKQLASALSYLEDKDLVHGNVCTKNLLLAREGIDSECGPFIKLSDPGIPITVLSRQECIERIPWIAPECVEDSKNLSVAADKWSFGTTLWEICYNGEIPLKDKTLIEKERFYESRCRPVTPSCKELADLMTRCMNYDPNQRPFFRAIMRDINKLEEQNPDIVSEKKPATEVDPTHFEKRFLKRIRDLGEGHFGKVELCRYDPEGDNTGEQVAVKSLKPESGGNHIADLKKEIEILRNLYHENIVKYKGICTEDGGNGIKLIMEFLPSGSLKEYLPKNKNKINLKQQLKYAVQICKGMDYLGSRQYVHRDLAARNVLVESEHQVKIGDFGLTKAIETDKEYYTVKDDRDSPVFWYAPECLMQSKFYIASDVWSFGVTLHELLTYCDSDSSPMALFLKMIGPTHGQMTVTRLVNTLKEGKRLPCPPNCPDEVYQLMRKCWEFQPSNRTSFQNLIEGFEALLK

Another test concerns the target T6, JNK2 (Homo sapiens, UniProt P45984).
T6 construct: gene MAPK9

In test [3] the target is T7, ABL1(Q252H)-nonphosphorylated (Homo sapiens, UniProt P00519, Q252H).
T7 construct: nonphosphorylated

The target of the next test is T8, MEK6 (Homo sapiens, UniProt P52564).
T8 construct: gene MAP2K6
T8 sequence (P52564 whole entry): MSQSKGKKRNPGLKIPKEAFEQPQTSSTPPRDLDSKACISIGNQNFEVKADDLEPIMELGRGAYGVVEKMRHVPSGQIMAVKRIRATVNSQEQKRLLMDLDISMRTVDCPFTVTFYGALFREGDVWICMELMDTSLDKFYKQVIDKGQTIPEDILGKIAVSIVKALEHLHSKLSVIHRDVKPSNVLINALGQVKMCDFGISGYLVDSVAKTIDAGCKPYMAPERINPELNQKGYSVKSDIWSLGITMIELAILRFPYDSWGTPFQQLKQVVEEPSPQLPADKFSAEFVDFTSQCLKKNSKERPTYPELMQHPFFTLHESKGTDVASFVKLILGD

ANKK1, sequence (Q8NFD2 whole entry): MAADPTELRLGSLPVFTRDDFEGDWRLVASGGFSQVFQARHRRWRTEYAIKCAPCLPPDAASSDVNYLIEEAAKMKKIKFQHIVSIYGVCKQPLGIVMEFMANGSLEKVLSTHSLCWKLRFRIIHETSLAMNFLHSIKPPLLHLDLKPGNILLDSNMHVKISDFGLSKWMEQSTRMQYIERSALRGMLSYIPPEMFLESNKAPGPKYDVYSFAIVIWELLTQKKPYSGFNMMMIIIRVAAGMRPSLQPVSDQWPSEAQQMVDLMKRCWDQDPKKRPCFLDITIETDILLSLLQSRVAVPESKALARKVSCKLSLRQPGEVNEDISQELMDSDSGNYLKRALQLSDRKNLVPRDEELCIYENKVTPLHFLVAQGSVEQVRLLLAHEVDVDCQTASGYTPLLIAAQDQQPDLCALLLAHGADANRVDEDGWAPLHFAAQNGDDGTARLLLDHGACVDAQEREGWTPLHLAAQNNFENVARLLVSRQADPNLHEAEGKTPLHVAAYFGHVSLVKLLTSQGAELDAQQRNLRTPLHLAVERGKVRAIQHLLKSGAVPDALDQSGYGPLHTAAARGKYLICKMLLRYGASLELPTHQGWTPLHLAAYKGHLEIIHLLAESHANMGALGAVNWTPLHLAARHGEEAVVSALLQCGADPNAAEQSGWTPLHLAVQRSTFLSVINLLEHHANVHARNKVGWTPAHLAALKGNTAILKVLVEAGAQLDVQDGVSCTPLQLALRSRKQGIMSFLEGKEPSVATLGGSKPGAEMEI
WEE1, sequence (P30291 whole entry): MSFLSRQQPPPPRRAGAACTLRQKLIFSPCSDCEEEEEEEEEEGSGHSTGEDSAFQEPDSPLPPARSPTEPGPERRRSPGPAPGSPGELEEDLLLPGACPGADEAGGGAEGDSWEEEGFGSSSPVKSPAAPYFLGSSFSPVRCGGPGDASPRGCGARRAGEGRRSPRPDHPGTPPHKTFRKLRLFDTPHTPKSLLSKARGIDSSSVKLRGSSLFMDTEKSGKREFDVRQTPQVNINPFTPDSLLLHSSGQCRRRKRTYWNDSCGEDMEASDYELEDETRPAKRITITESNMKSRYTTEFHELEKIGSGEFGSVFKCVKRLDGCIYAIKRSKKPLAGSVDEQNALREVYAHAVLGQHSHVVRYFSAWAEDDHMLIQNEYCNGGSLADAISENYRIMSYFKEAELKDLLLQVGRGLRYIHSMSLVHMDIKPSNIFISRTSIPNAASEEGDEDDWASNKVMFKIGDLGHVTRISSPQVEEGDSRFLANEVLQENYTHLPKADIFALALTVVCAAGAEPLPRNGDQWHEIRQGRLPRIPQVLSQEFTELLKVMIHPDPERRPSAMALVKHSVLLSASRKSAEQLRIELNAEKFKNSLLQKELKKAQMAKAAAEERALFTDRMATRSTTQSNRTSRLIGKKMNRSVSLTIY
ERN1, sequence (O75460 whole entry): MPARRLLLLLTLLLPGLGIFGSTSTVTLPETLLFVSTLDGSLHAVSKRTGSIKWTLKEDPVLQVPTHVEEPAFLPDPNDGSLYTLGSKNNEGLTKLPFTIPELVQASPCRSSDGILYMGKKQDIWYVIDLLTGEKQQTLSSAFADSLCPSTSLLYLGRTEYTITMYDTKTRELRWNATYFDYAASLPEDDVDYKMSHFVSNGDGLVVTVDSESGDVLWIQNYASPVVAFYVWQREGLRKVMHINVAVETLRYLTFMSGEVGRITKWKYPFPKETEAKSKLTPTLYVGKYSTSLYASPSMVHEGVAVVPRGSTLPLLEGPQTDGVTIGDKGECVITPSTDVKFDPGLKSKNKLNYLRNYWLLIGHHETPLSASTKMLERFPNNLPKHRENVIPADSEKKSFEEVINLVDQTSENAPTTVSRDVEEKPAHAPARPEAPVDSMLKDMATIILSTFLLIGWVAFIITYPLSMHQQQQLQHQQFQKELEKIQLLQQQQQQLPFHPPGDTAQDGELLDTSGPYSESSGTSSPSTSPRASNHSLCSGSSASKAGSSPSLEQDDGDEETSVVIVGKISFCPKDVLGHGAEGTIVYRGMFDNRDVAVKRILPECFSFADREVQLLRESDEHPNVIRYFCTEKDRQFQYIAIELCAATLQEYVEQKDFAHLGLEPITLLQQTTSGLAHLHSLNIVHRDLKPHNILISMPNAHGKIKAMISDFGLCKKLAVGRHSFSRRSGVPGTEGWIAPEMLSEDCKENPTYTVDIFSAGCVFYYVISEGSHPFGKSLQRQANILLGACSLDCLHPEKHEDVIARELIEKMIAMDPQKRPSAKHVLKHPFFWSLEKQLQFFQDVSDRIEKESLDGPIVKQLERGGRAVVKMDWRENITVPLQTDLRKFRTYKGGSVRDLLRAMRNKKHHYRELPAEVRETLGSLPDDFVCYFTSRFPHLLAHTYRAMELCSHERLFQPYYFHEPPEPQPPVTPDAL
NEK6, sequence (Q9HC98 whole entry): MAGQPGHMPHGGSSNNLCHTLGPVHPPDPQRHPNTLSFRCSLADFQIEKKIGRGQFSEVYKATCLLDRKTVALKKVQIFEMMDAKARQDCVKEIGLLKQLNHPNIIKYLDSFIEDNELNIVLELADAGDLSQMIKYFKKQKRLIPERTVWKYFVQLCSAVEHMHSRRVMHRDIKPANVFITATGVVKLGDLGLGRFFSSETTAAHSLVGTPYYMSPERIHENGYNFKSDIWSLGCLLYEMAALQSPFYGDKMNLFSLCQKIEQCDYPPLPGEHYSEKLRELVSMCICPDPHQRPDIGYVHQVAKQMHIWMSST
AURKA, sequence (O14965 whole entry): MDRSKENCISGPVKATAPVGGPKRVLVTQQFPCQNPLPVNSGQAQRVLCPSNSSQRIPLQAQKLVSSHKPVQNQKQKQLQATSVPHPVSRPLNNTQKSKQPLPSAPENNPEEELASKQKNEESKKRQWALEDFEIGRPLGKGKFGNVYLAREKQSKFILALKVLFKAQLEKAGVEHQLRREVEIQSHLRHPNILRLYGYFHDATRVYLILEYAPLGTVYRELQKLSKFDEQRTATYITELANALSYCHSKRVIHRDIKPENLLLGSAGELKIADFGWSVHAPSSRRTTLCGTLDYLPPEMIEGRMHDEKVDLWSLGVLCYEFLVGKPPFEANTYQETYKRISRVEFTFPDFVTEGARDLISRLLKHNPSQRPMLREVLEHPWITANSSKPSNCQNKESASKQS
T6 sequence (P45984 whole entry): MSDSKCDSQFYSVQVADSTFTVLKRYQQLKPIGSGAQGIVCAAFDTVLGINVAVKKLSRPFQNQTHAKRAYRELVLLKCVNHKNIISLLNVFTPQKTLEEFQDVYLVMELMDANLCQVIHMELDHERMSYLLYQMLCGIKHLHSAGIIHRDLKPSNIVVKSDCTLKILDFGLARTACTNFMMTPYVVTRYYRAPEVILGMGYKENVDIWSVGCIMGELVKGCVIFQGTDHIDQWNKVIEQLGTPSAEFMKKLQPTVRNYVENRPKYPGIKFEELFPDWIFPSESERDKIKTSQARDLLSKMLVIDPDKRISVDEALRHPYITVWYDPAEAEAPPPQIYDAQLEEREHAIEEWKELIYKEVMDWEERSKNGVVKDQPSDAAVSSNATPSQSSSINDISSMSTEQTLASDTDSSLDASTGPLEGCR

With `Cc1ccc(NC(=O)c2cccc(C(F)(F)F)c2)cc1Nc1cc(-c2cccnc2)nc2[nH]ccc12` [HZX-02-059], the remaining binding at 1 µM was 78% on MEK4; 55% on ABL1-phosphorylated; 66% at ERN1; 40% in test [1]; 98% at NEK6; 94% at PAK1. Further, the remaining binding at 1 µM at YSK4 stood at 100%; at GRK2, 100%; in [2], 100%; at JNK2, 99%; on CDK8, 91%; in [3], 30%. The remaining binding at 1 µM on FLT3(D835H) was 92%; at AURKA, 100%; at PDPK1, 89%; at ROCK2, 100%; at ANKK1, 99%; at LATS2, 67%. Besides, the remaining binding at 1 µM was 91% on CSK; 100% on EGFR(S752-I759del); 95% at LIMK2; 88% on SBK1; 95% at WEE1; 88% on MEK6.
